Experimental data taken from patent publication US6596878B2, “Methods and compositions for inhibiting cell proliferative disorders” (Yissum Research & Development Company of the Hebrew …, priority 1994, dated 2003).
pIC50: −log10 of the molar value. Where two headings read alike, the source gives them in different places.

Key:
Assay type in all cases: cell-based
HER2 = target: T1, HER2 (Homo sapiens, UniProt P04626); experiment: HER2-BT474 whole cell kinase ELISA
T1 construct: the human mammary carcinoma line BT474 (ATCC HTB2) expressing HER2; endogenous in cells; host or cells: BT474 human mammary carcinoma cells
Procedure: HER2-BT474 assays measuring whole cell HER2 activity was carried out as described below:
All the following steps are at room temperature and aseptically, unless stated otherwise. All ELISA plate washing is by rinsing with distilled water three times and once with TBST.
Incubate the cells in 5% CO2 at 37° C. overnight.
2. ELISA Plate Coating and Blocking

[1] = system: MCF7 human breast carcinoma cells; experiment: MCF-7 SRB growth assay; settings: Table VI, 10% FBS, four days
Text: (§1) This example illustrates the ability of the exemplary compounds to inhibit receptor tyrosine kinases, such as HER2 and/or EGFR. The following target cells were used for cellular kinaseassays: NIH3T3 clone C7 (Honegger et al., supra) engineered to over-express human EGF receptor; NIH3T3 cells engineered to over-express a chimeric receptor containing the EGFR extracellular domain and the HER2 intracellular kinase domain; the human mammary carcinoma line BT474 (ATCC HTB2) expressing HER2; and the human glioblastoma line U1242 that expresses PDGFR-β. Growth assays were carried out using human mammary epithelial SKBR3 (ATCC HTB30) cells, SKOV3 (ATCC HTB77) human ovarian cancer cell line, A431 cells, MCF7 human breast carcinoma cells, MCF7 cells overexpress the HER2 kinase (MCF7-HER2), NIH3T3 cells, and NIH3T3 cells overexpressing the HER2 kinase (3T3-HER2).
6. MCF-7 SRB Growth Assay
MCF-7 cells are seeded at 2000 cells/ well in a 96-well flat bottom plate in normal growth media, which was 10% FBS/RPMI supplemented with 2 mM Glutamine. The plate of cells is incubated for about 24 hours at 37° C. after which it receives an equal volume of compound dilution per well making the total volume per well 200 μl. The compound is prepared at 2 times the desired highest final concentration and serially diluted in the normal growth media in a 96-well round bottom plate and then transferred to plate of cells. DMSO serves as the vector control up to 0.2% as final concentration. The cells are then incubated at 37° C. in a humidified 5% CO2 incubator.
Four days following dosing of compound, the media is discarded and 200 μl/well of ice-cold 10% TCA (Trichloroacetic Acid) is added to fix cells. After 60 minutes at 4° C., the TCA is discarded and the plate is rinsed 5 times with water. The plate is then air-dried and 100 μl/well of 0.4% SRB (Sulforhodamine B from Sigma) in 1% Acetic Acid is added to stain cells for 10 minutes at room temperature. The SRB is discarded and the plate is rinsed 5 times with 1% Acetic Acid. After the plate is completely dried, 100 μl/well of 10 mM Tris-base is added to solubilize the dye. After 5 to 10 minutes, the plate is read on a Dynatech ELISA Plate Reader at dual wavelengths at 570 nm and 630 nm.

NIH3T3 cells = experiment: 3T3 growth assay, NIH3T3C7 control cells; settings: Mus musculus, NIH3T3, 96 h, Table VI, 10% CS, 4 days
Text: as §1
The 3T3 growth assay was carried out as follows:
(1) Dulbecco's Modified Eagle Medium (D-MEM), Gibco 11965-050;
(4) Fetal Bovine Serum Certified, Gibco 16000-028;
(5) Dulbecco's Phosphate-Buffered Saline (D-PBS), Gibco 14190-029;
(6) Sulforhodamine B (SRB), Sigma S-9012. 0.4% SRB in 1% acetic acid;
(7) 10 mM Tris-base, Fisher BP152-5;
(8) 10% TCA, Trichloroacetic acid, Fisher A322-500;
(9) 96-well flat bottom plate (sterile), Corning 08-757-155;
(10) 100 ml reagent reservoir 9 (sterile), Matrix Technologies Corporation, 8086;
(11) Sterile pipet tips, Fisher 21-197-8E;
NIH3T3C7 cells in 10% CS+2 mM GLN DMEM HER2C7 cells in 2% FBS+2 mM GLN DMEM
(1) HER2C7 (engineered to express HER2) and NIH3T3C7 (as the control) cells are used for this assay. NIH3T3C7 cells are seeded at 2500 cells/well, […] in 10% CS+2 mM GLN DMEM, in a 96 well plate; HER2C7 cells are seeded at 6000 cells/well, 100 μl/well in 2% FBS+2 mM GLN DMEM, in a 96 well plate. Cells are incubated at 37° C., 5% CO2 overnight to allow for cell attachment to the plate;
(2) The test compound is added to the cells at day 2. The compounds are prepared in the appropriate growth medium (10% CS+2 mM) GLN DMEM for NIH3T3C7 cells; 2% FBS+2 mM GLN DMEM for HER2C7 cells) in a 96 well plate, and serially diluted. A total of 100 μl/well medium of the diluted compounds is added into the cells. The total volume of each well is 200 μl. Quadruplicates (wells) and 11 concentration points are applied to each compound tested.
(3) After the cells are treated with the compound for 4 days, the cells are washed with PBS and fixed with 200 μl/well ice-cold 10% TCA for one hour at 0-5° C. condition.
(4) Remove TCA and rinse wells 5 times with deionized water. Dry plates upside down with paper towels. Stain cells with 0.4% SRB at 100 μl/well for 10 minutes.
(5) Pour off SRB and rinse plate 5 times with 1% acetic acid. Dry plate completely.
(6) Solubilize the dye with 10 mM Tris-base at 100 μl/well for 10 minutes on a shaker.
(7) Read the plate at dual wavelengths at 570 nm and 630 nm on Dynatech Elisa plate reader.

[2] = Table V, read-out: Estimated IC50 Cellular Kinase Assays HER2 (BT474)
[3] = Table VI, cellular kinase assay, read-out: HER2-BT474

| pIC50 (HER2; [2]) | pIC50 (HER2; [3]) | pIC50 ([1]; Homo sapiens, MCF7, 96 h) | fold greater inhibition of HER2 compared to EGF-R (HER2; as described in Example 1) | activity in cellular assays (HER2; cellular assays of the Examples, versus analogous compounds having bulkier R1 and R3 groups) | Molecule | pIC50 (NIH3T3 cells) | pIC50 [1] |
| --- | --- | --- | --- | --- | --- | --- | --- |
| > 5.52 | 5.51 | 5.40 |  |  | CC(C)(C)c1cc(/C=C(\C#N)C(N)=S)cc(C(C)(C)C)c1O [Compound M11] | 4.12 |  |
| 4.85 | 4.85 |  | ≥ 7 fold |  | N#C/C(=C\c1ccc(O)c(O)c1)C(=S)NCc1ccccc1 [Compound M13] |  |  |
| 4.80 | 4.80 | 4.82 |  |  | N#C/C(=C\c1ccc(O)c(O)c1)C(=O)Nc1cccc(C(F)(F)F)c1 [Compound M15] |  |  |
| 4.74 | 4.59 |  |  |  | N#C/C(=C\c1cc(O)c(O)c(I)c1)C(=O)NCCCc1ccccc1 [Compound M16] |  |  |
|  | 5.52 | 5.22 |  |  | CC(C)(C)c1cc(/C=C(\C#N)C(=O)NCCCc2ccccc2)cc(C(C)(C)C)c1O [Compound M20, (E)-3-(3,5-di-t-Butyl-4-hydroxyphenyl)-2-[(3-phenyl-n-propyl)aminocarbonyl]acrylonitrile] | 4.05 |  |
|  | 5.13 | 4.85 |  |  | CC(C)c1cc(/C=C(\C#N)C(=O)NCCCc2ccccc2)cc(C(C)C)c1O [Compound M21, (E)-3-(3,5-Diisopropyl-4-hydroxyphenyl)-2-[(3-phenyl-n-propyl)aminocarbonyl]acrylonitrile] | < 4.00 |  |
|  | 5.38 | 4.36 |  |  | CC(C)c1cc(C=C(C#N)C(N)=C(C#N)C#N)cc(C(C)C)c1O [Compound M22, (E)-2-(1-Amino-2,2-dicyanoethenyl-3-(3,5-diisopropyl-4-hydroxyphenyl)acrylonitrile)] |  |  |
|  | 5.51 | 5.10 |  |  | CC(C)c1cc(/C=C(\C#N)C(=S)NCCCc2ccccc2)cc(C(C)C)c1O [Compound M24, (E)-3-(3,5-Diisopropyl-4-hyrdroxyphenyl)-2-[(3-phenyl-n-propyl)aminothiocarbonyl]acrylonitrile] |  |  |
|  | 5.02 |  |  |  | CC(C)c1cc(/C=C(\C#N)S(=O)(=O)c2ccccn2)cc(C(C)C)c1O [Compound M26] | < 4.00 |  |
|  | 5.34 | 4.48 |  |  | CC(C)c1cc(/C=C(\C#N)S(=O)(=O)CC#N)cc(C(C)C)c1O [Compound M27] | < 4.00 |  |
|  | 5.85 | 4.92 |  |  | CC(C)c1cc(/C=C(\C#N)S(=O)(=O)/C(C#N)=C/c2cc(C(C)C)c(O)c(C(C)C)c2)cc(C(C)C)c1O [Compound M29] | < 4.00 |  |
|  | 6.19 | 5.05 |  |  | CC(C)c1cc(/C=C(\C#N)S(=O)(=O)c2ccccc2)cc(C(C)C)c1O [Compound M30] | 4.15 |  |
|  | 5.27 |  |  | less activity | Cc1cc(/C=C(\C#N)S(=O)(=O)c2ccccc2)cc(C)c1O [Compound M31] | < 4.00 |  |
|  | 5.14 |  |  |  | Cc1cc(/C=C(\C#N)S(=O)(=O)c2ccccn2)cc(C)c1O [Compound M32] | < 4.00 |  |
|  | 6.77 | 6.00 |  |  | CC(C)(C)c1cc(/C=C(\C#N)S(=O)(=O)c2ccccc2)cc(C(C)(C)C)c1O [Compound M33, (E)-3-(3,5-di-t-Butyl-4-hydroxyphenyl)-2-(phenylsulfonyl)acrylonitrile] | 4.46 |  |
|  | 6.96 | 5.70 |  |  | CC(C)(C)c1cc(/C=C(\C#N)S(=O)(=O)c2ccccn2)cc(C(C)(C)C)c1O [Compound M34, (E)-3-(3,5-di-t-Butyl-4-hydroxyphenyl)-2-[(pyrid-2-yl)sulfonyl]acrylonitrile] | 4.40 |  |
|  | 6.54 | 6.52 |  |  | CC(C)(C)c1cc(/C=C(\C#N)C(=O)Nc2ccc(C(F)(F)F)cc2)cc(C(C)(C)C)c1O [Compound M35, (E)-3-(3,5-di-t-Butyl-4-hydroxyphenyl)-2-[(4-trifluoromethyl)phenylaminocarbonyl]acrylonitrile] | 4.74 |  |
|  | 6.40 | 5.10 |  |  | CC(C)(C)c1cc(/C=C(\C#N)S(=O)(=O)CC#N)cc(C(C)(C)C)c1O [Compound M36, (E)-3-(3,5-di-t-Butyl-4-hydroxyphenyl)-2-(cyanomethylsulfonyl)acrylonitrile] |  |  |

| Molecule | pIC50 (HER2; [2]) | pIC50 (HER2; [3]) | pIC50 ([1]; Homo sapiens, MCF7, 96 h) | fold greater inhibition of HER2 compared to EGF-R (HER2; as described in Example 1) | activity in cellular assays (HER2; cellular assays of the Examples, versus analogous compounds having bulkier R1 and R3 groups) | pIC50 (NIH3T3 cells) | pIC50 [1] |
| --- | --- | --- | --- | --- | --- | --- | --- |
| (E,E)-2-[[-Cyano-2-(3,5-diisopropyl-4-hydroxyphenyl)ethenyl]sulfonyl]-3-(3,5-di-t-butyl-4-hydroxyphenyl)acrylonitrile [Compound M37] |  | 6.07 |  |  |  |  | 5.52 |
